Assay results: patent US9359338B2, “Cyclopropanecarboxamido-substitute aromatic compounds as anti-tumor agents” (Crown Bioscience Inc. (Taiwan), priority 2012, dated 2016)
Where two headings read alike, the source gives them in different places.

Tests used:
[1] = tested on: PLC-PRF-5 cells; experiment: Inhibition of proliferation of PLC-PRF-5 cells (ATPlite); type: cell-based; settings: Homo sapiens
Method in brief: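 Antiproliferative IC50 from luminescent ATP detection (ATPlite) after 96 h compound exposure at 37 °C. Cells grown in DMEM plus 10% FBS and allowed 2 h to settle, then dosed with eight 3-fold dilutions topping at 30 μM final, DMSO 0.3%.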

[2] = tested on: pERK in MDA-MB-231 cells; experiment: Inhibitory activity at pERK (In Cell Western, MDA-MB-231 cells); type: cell-based; settings: Homo sapiens
Method in brief: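 pERK was measured by in-cell immunofluorescence (PI nuclear counterstain, Acumen read-out) in fixed MDA-MB-231 cells. Compound exposure lasted 2 h in DMEM with 0.1% BSA, using eight 3-fold dilutions starting at 30 μM final and 0.3% DMSO. IC50 values were derived from the resulting curves.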

[3] = biological target: B-Raf kinase (Homo sapiens (Human), UniProt P15056); experiment: Inhibitory activity at B-Raf kinase (ADP-GLO assay); type: biochemical
Chain of B-Raf kinase (P15056 416-766): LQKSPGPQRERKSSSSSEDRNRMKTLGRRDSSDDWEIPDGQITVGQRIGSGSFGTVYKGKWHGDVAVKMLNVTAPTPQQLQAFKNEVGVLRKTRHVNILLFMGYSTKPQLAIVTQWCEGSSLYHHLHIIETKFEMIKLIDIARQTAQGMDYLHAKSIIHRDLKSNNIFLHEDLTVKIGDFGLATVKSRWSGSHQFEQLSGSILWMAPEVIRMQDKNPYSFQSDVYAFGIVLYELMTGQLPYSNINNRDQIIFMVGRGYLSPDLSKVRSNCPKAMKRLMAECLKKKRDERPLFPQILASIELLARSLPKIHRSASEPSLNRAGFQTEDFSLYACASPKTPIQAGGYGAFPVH
Experimental: Inhibitory Activity of Compounds at B-Raf Kinase
• [Experimental method]: Use ADP-GLO™ assay kit from Promega to evaluate the inhibitory activity of compounds at B-Raf • [Instrument]: PerKinElmer's ENVISION plate reader • [Material]: Optiplate-384 well plate (PerKinElmer), kinase buffer (50 mM Hepes pH7.5, 1 mM EGTA, 2 mM DTT, 10 mM Mg^2+, 0.05% BSA), B-Raf kinase (Millipore, catalogue #14-530-K), GST-MEK1 substrate (Carna, catalogue #07-141-10), Super pure ATP (Promega), ADP-GLO™ assay kit (Promega, catalogue # V9102), DMSO (Sigma, catalogue #34869), purified water (Millipore, type: Milli-Q). • [Study conditions]: Mix B-Raf kinase (final concentration: 5 nM) and compound (DMSO final concentration: 0.25%) and preincubate at 30° C. for 20 min, then add ATP (final concentration: 6 μM) and reaction substrate (final concentration: 30 nM), React for 2 hrs at 30° C. After reaction, add ADP-GLO™ reagent, react for 40 min at room temperature, then add ADP-GLO™ detecting agent, react for 30 min at room temperature. After that, use ENVSION to measure the […]. • [Samples]: Compounds in the examples and Sorafenib (positive control) • [Data analysis]: Use CBIS data analysis software to calculate IC50 values

[4] = biological target: KDR kinase (790-1356 AA) (Homo sapiens (Human), UniProt P35968); experiment: Inhibitory activity at KDR kinase (Lance Ultra Ulight-TK assay); type: biochemical
Chain of KDR kinase (790-1356 AA) (P35968 790-1356): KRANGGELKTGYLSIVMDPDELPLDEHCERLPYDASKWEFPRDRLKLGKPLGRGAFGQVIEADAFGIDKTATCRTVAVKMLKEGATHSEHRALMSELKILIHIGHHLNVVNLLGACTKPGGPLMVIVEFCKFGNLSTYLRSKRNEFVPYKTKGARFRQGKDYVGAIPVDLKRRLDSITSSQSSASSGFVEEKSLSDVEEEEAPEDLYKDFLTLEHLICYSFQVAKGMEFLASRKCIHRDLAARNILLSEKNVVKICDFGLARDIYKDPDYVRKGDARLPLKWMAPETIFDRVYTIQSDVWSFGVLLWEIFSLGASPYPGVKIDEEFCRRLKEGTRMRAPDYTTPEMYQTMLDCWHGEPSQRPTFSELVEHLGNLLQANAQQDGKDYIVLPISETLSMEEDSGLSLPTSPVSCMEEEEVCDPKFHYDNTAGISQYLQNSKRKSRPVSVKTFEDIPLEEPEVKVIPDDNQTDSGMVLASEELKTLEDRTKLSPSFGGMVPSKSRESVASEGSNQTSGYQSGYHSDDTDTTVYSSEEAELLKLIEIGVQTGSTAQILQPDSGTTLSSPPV
Method in brief: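 Kinase (20 nM final) and compound were premixed 20 min at 30 °C, then phosphorylation ran 2 h at 30 °C with ATP at 90 μM and Ulight-TK substrate at 50 μM, pH 7.5, Mg2+ and Mn2+ present.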

[5] = PLC-PRF-5, PLC-PRF-5 cells, read-out: PLC-PRF-5 cell proliferation IC50
[6] = MDA-MB-231, MDA-MB-231 cells, read-out: MDA-MB-231 pERK IC50
[7] = PLC-PRF-5, read-out: PLC-PRF-5 cell proliferation IC50
[8] = MDA-MB-231, read-out: MDA-MB-231 pERK IC50

IC50 [2, 6] | IC50 [3] | IC50 [4] | Compound | IC50 [1, 5] | IC50 [1, 7] | IC50 [2, 8]
33.9 nM | 26 nM | 13.5 nM | CS(=O)(=O)c1cc(NC(=O)Nc2ccc(Oc3ccnc(NC(=O)C4CC4)c3)c(F)c2)cc(C(F)(F)F)c1 [Exe. 037] | 768 nM |  | 
23.5 nM | 5.3 nM | 8.2 nM | CN1CCC(Oc2cc(NC(=O)Nc3ccc(Oc4ccnc(NC(=O)C5CC5)c4)c(F)c3)cc(C(F)(F)F)c2)C1 (centres unmarked) [Exe. 038] | 130 nM |  | 
18.1 nM | 37.5 nM | 4.2 nM | CC1CN(c2cc(NC(=O)Nc3ccc(Oc4ccnc(NC(=O)C5CC5)c4)c(F)c3)cc(C(F)(F)F)c2)C(=O)O1 (centres unmarked) [Exe. 041] | 358 nM |  | 
29.8 nM | 13 nM | 14.2 nM | CC(=O)Nc1cc(NC(=O)Nc2ccc(Oc3ccnc(NC(=O)C4CC4)c3)c(F)c2)cc(C(F)(F)F)c1 [Exe. 044] | 752 nM |  | 
53.3 nM | 73.6 nM | 6.2 nM | CC1CN(c2cc(NC(=O)Nc3ccc(Oc4ccnc(NC(=O)C5CC5)c4)c(F)c3)cc(C(F)(F)F)c2)CC(C)O1 (centres unmarked) [Exe. 047] | 682 nM |  | 
25 nM | 11 nM | 7.3 nM | CN(C)C1CCN(c2cc(NC(=O)Nc3ccc(Oc4ccnc(NC(=O)C5CC5)c4)c(F)c3)cc(C(F)(F)F)c2)C1 (centres unmarked) [Exe. 048] | 233 nM |  | 
33.9 nM | 23.6 nM | 5.2 nM | O=C(Nc1cc(N2CCC(O)CC2)cc(C(F)(F)F)c1)Nc1ccc(Oc2ccnc(NC(=O)C3CC3)c2)c(F)c1 [Exe. 051] | 749 nM |  | 
22 nM | 13 nM | 15.5 nM | O=C(Nc1cc(N2CCCC2=O)cc(C(F)(F)F)c1)Nc1ccc(Oc2ccnc(NC(=O)C3CC3)c2)c(F)c1 [Exe. 052] | 360 nM |  | 
39.7 nM | 65 nM | 17.5 nM | CC(F)(F)c1cncc(NC(=O)Nc2ccc(Oc3ccnc(NC(=O)C4CC4)c3)c(F)c2)c1 [Exe. 056] | 110 nM |  | 
30 nM | 116 nM | 13.7 nM | O=C(Nc1ccc(Oc2ccnc(NC(=O)C3CC3)c2)c(F)c1)Nc1cc(C2CC2)ccc1F [Exe. 058] | 43 nM |  | 
19.4 nM | 90 nM | 8.2 nM | O=C(Nc1ccc(Oc2ccnc(NC(=O)C3CC3)c2)c(F)c1)Nc1ccc2[nH]cc(F)c2c1 [Exe. 059] | 643 nM |  | 
26.3 nM | 6.3 nM | 3.73 nM | O=C(Nc1cccc(C(F)(F)F)c1)Nc1ccc(Oc2ccnc(NC(=O)C3CC3)c2)c(F)c1 [Exe. 061] | 211 nM |  | 
29.1 nM | 14.9 nM | 5.5 nM | O=C(Nc1ccc(Oc2ccnc(NC(=O)C3CC3)c2)c(F)c1)Nc1ccc(Cl)c(OC(F)(F)F)c1 [Exe. 063] | 2330 nM |  | 
46.5 nM | 25 nM | 6.5 nM | CC(F)(F)c1cncc(NC(=O)Nc2ccc(Oc3ccnc(NC(=O)C4CC4)c3)cc2)c1 [Exe. 065] | 162 nM |  | 
63.5 nM | 145 nM | 11 nM | Cc1cc(Oc2cc(NC(=O)C3CC3)ncn2)ccc1NC(=O)Nc1ccc(F)c(C(F)(F)F)c1 [Exe. 070, N-[6-[4-[[4-fluoro-3-(trifluoromethyl)phenyl]carbamoylamino]-3-methyl-phenoxy]pyrimidin-4-yl]cyclopropanecarboxamide] | 9300 nM |  | 
77.5 nM | 146 nM | 10.5 nM | Cc1cc(Oc2cc(NC(=O)C3CC3)ncn2)ccc1NC(=O)Nc1cccc(C(F)(F)F)c1 [Exe. 074] | 6070 nM |  | 
19.3 nM | 45 nM | 10.7 nM | Cc1cc(Oc2cc(NC(=O)C3CC3)ncn2)ccc1NC(=O)Nc1ccc(Cl)c(C(C)(F)F)c1 [Exe. 085] | 11000 nM |  | 
85.5 nM | 153 nM | 11.3 nM | CC(F)(F)c1cc(NC(=O)Nc2ccc(Oc3cc(NC(=O)C4CC4)ncn3)c(F)c2)ccc1Cl [Exe. 105] | 1900 nM |  | 

IC50 [2, 6] | IC50 [3] | IC50 [4] | Compound | IC50 [1, 5] | IC50 [1, 7] | IC50 [2, 8]
20.2 nM | 31 nM | 13.4 nM | O=C(Nc1ccc(Oc2cc(NC(=O)C3CC3)ncn2)cc1F)Nc1cc(C(F)(F)F)ccc1F [Exe. 107] | 324 nM |  | 
20 nM | 41 nM | 8.6 nM | O=C(Nc1cccc(C(F)(F)F)c1)Nc1ccc(Oc2cc(NC(=O)C3CC3)ncn2)cc1F [Exe. 108] | 1610 nM |  | 
9.8 nM | 32 nM | 10.9 nM | CC(F)(F)c1ccc(F)c(NC(=O)Nc2ccc(Oc3cc(NC(=O)C4CC4)ncn3)cc2F)c1 [Exe. 109] | 274 nM |  | 
13.4 nM | 24 nM | 7.3 nM | CC(F)(F)c1cc(NC(=O)Nc2ccc(Oc3cc(NC(=O)C4CC4)ncn3)cc2F)ccc1Cl [Exe. 110] | 1580 nM |  | 
30.4 nM | 111 nM | 7.9 nM | Cc1cc(NC(=O)Nc2cc(C(C)(F)F)ccc2F)ccc1Oc1cc(NC(=O)C2CC2)ncn1 [Exe. 116] | 125 nM |  | 
55.3 nM | 293 nM | 7.4 nM | Cc1cc(NC(=O)Nc2ccc(F)c(C(C)(F)F)c2)ccc1Oc1cc(NC(=O)C2CC2)ncn1 [Exe. 118] | 706 nM |  | 
19.4 nM | 10.4 nM | 13.8 nM | Cc1cc(NC(=O)Nc2cc(C(F)(F)F)ccc2F)cnc1Oc1ccnc(NC(=O)C2CC2)c1 [Exe. 124] | 160 nM |  | 
4.7 nM | 8.6 nM | 8.7 nM | COc1ccc(NC(=O)Nc2cnc(Oc3ccnc(NC(=O)C4CC4)c3)c(C)c2)cc1C(F)(F)F [Exe. 125] | 1720 nM |  | 
24.3 nM | 61.4 nM | 30.2 nM | Cc1cc(NC(=O)Nc2cc(OC(C)C)cc(C(F)(F)F)c2)cnc1Oc1ccnc(NC(=O)C2CC2)c1 [Exe. 126] | 2440 nM |  | 
11.6 nM | 7.2 nM | 11.8 nM | Cc1cc(Oc2ccnc(NC(=O)C3CC3)c2)ncc1NC(=O)Nc1cc(C(F)(F)F)ccc1F [Exe. 127] | 642 nM |  | 
38 nM | 6.2 nM | 9.8 nM | Cc1cc(Oc2ccnc(NC(=O)C3CC3)c2)ncc1NC(=O)Nc1cc(C(C)(F)F)ccc1F [Exe. 128] | 819 nM |  | 
725 nM | 29.7 nM | 4.6 nM | CS(=O)(=O)c1cc(NC(=O)Nc2ccc(Oc3ccnc(NC(=O)C4CC4)c3)nc2)cc(C(F)(F)F)c1 [Exe. 130] | 4990 nM |  | 
> 1000 nM | 12.5 nM | 6.1 nM | CN1CCC(Nc2cc(NC(=O)Nc3ccc(Oc4ccnc(NC(=O)C5CC5)c4)nc3)cc(C(F)(F)F)c2)CC1 [Exe. 131] | 10500 nM |  | 
341 nM | 39 nM | 10 nM | O=C(Nc1ccc(Oc2ccnc(NC(=O)C3CC3)c2)nc1)Nc1cc(N2CCS(=O)(=O)CC2)cc(C(F)(F)F)c1 [Exe. 132] | 5910 nM |  | 
46 nM | 29 nM | 6.6 nM | CS(=O)(=O)c1cc(NC(=O)Nc2ccc(Oc3ccnc(NC(=O)C4CC4)c3)cn2)cc(C(F)(F)F)c1 [Exe. 136] | 470 nM |  | 
7.8 nM | 11.3 nM | 10.2 nM | O=C(Nc1ccc(Oc2ccnc(NC(=O)C3CC3)c2)cc1)Nc1ccc(Cl)c(C(F)(F)F)c1 [Exe. 137] | 5960 nM |  | 
9.1 nM | 26 nM | 10.5 nM | O=C(Nc1ccc(Oc2ccnc(NC(=O)C3CC3)c2)cc1)Nc1ccc(F)c(C(F)(F)F)c1 [Exe. 138] | 1510 nM |  | 

Compound | IC50 [2, 6] | IC50 [3] | IC50 [4] | IC50 [1, 5] | IC50 [1, 7] | IC50 [2, 8]
N#Cc1ccc(NC(=O)Nc2ccc(Oc3ccnc(NC(=O)C4CC4)c3)c(F)c2)cc1C(F)(F)F [Exe. 062] |  | 7 nM | 7.18 nM |  | 3050 nM | 29.4 nM
N#Cc1ccc(NC(=O)Nc2ccc(Oc3ccnc(NC(=O)C4CC4)c3)cn2)cc1C(F)(F)F [Exe. 133] |  | 25 nM | 9.1 nM |  | 1020 nM | 23.6 nM
N#Cc1ccc(NC(=O)Nc2ccc(Oc3ccnc(NC(=O)C4CC4)c3)cc2)cc1C(F)(F)F [Exe. 139] |  | 13 nM | 10 nM |  | 654 nM | 10.9 nM
